Our source for the IC50 values is US11708367B2, “Compounds for the treatment of kinase-dependent disorders” (Exelixis, Inc., priority 2018, dated 2023).

The structures appear in SMILES notation.

Assay type in all cases: cell-based
The target of one experiment is AXL (Homo sapiens (Human), UniProt P30530). The experiment in a line: AXL autophosphorylation ELISA in A-172 cells. The conditions noted are these: cellular, Gas6-stimulated, phospho-AXL ELISA. As for the experimental part:
A-172 glioblastoma cells (ATCC #CRL-1620) were seeded at 2.5×10^5 cells/well onto 24-well plates (Greiner #662165), in DMEM (Thermo Fisher #11995-040) containing 10% FBS (Thermo Fisher #26140-079), 1% MEM NEAA (Thermo Fisher #11140-050), 1% GlutaMax (Thermo Fisher #35050-061), and 1% Penicillin Streptomycin (Thermo Fisher #15140-122). A-172 cells were incubated at 37° C., 5% CO2 for 24 h and then starved for 24 h in serum-free medium. Test compounds were serially diluted to produce an 8-point dose curve in fresh serum-free medium to a final concentration of 0.3% DMSO (vehicle) and added to the cells and incubated for 1 h. Cells were then stimulated with 1 μg/mL recombinant human Gas6 (R&D Systems #885-GSB-500) for 15 min, washed with cold PBS, and immediately lysed with 150 μL of cold IX lysis buffer [20 mM Tris, 137 mM sodium chloride, 2 mM EDTA, 10% glycerol, 1% NP-40 alternative, 1 mM activated sodium orthovanadate, 1 mM PefaBloc SC (Sigma-Aldrich #11429868001), protease/phosphatase inhibitor tablet (Thermo Fisher #A32959)]. Lysates were collected and 100 μL/well added into the human phospho-AXL Duo Set IC ELISA (R&D Systems #DYC2228-2). Assay was performed according to manufacturer's instructions and sample phospho-AXL concentrations were extrapolated using human phospho-AXL control (R&D Systems #841645) as a standard. Positive control wells (100% activity) contained Gas6-stimulated, DMSO-treated cell lysates. Negative control wells (0% activity) contained Gas6-stimulated, reference inhibitor-treated cell lysates. IC50 values were calculated by nonlinear regression analysis using a 4-parameter logistic curve fit in ActivityBase XL (IDBS).

Another experiment deals with Met (Homo sapiens (Human), UniProt P08581). The experiment can be described thus: Met autophosphorylation ELISA in PC-3 cells. The conditions noted are these: cellular, HGF-stimulated, phospho-Met ELISA, read-out: c-Met IC50. The procedure:
PC-3 prostate cancer cells (ATCC #CRL-1435) were seeded at 4×10^4 cells/well onto 24-well plates (Greiner #662165), in DMEM (Thermo Fisher #11995-040) containing 10% FBS (Thermo Fisher #26140-079), 1% MEM NEAA (Thermo Fisher #11140-050), 1% GlutaMax (Thermo Fisher #35050-061), and 1% Penicillin Streptomycin (Thermo Fisher #15140-122). PC-3 cells were incubated at 37° C., 5% CO2 for 24 h and then starved for 3 h in serum-free medium. Test compounds were serially diluted to produce an 8-point dose curve in fresh serum-free medium to a final concentration of 0.3% DMSO (vehicle) and added to the cells and incubated for 1 h. Cells were then stimulated with 100 ng/mL recombinant human HGF (R&D Systems #294-HG-250) for 10 min, washed with cold PBS, and immediately lysed with 130 μL of cold IX lysis buffer [20 mM Tris, 137 mM sodium chloride, 2 mM EDTA, 10% glycerol, 1% NP-40 alternative, 1 mM activated sodium orthovanadate, 1 mM PefaBloc SC (Sigma-Aldrich #11429868001), protease/phosphatase inhibitor tablet (Thermo Fisher #A32959)]. Lysates were clarified by centrifugation and 100 μL/well added into the PathScan phospho-Met (panTyr) Sandwich ELISA (Cell Signaling Technology #7333). Assay was performed according to manufacturer's instructions. Positive control wells (100% activity) contained HGF-stimulated, DMSO-treated cell lysates. Negative control wells (0% activity) contained HGF-stimulated, reference inhibitor-treated cell lysates. IC50 values were calculated by nonlinear regression analysis using a 4-parameter logistic curve fit in ActivityBase XL (IDBS).

The next experiment addresses KDR (Homo sapiens (Human), UniProt P35968). The experiment can be described thus: KDR autophosphorylation ELISA in HUVEC cells. As to conditions: cellular, VEGF165-stimulated, phospho-KDR ELISA. The procedure: Human umbilical vein endothelial cells or HUVEC (Lonza #C2519A) were seeded at 2×10^4 cells/well onto 96-well plates (Corning #3904), in EGM-2 growth medium (Lonza #CC-3162) containing 1% Penicillin Streptomycin (Thermo Fisher #15140-122). HUVEC cells were incubated at 37° C., 5% CO2 for 24 h and then starved for 24 h in serum-free EBM-2 basal medium (Lonza #CC-3156) containing 1% Penicillin Streptomycin. Test compounds were serially diluted to produce an 8-point dose curve in fresh serum-free medium to a final concentration of 0.3% DMSO (vehicle) and added to the cells and incubated for 1 h. Cells were then stimulated with 100 ng/mL recombinant human VEGF165 (R&D Systems #293-VE-500) for 5 min, washed with cold PBS, and immediately lysed with 130 μL of cold 1× lysis buffer [20 mM Tris, 137 mM sodium chloride, 2 mM EDTA, 10% glycerol, 1% NP-40 alternative, 1 mM activated sodium orthovanadate, 1 mM PefaBloc SC (Sigma-Aldrich #11429868001), protease/phosphatase inhibitor tablet (Thermo Fisher #A32959)]. Lysates were collected and 100 μL/well added into the human phospho-KDR Duo Set IC ELISA (R&D Systems #DYC 1766-2). Assay was performed according to manufacturer's instructions and sample phospho-KDR concentrations were extrapolated using human phospho-KDR control (R&D Systems #841421) as a standard. Positive control wells (100% activity) contained VEGF165-stimulated, DMSO-treated cell lysates. Negative control wells (0% activity) contained non-stimulated cell lysates. IC50 values were calculated by nonlinear regression analysis using a 4-parameter logistic curve fit in ActivityBase XE (IDBS).

AXL, sequence (P30530 26-894): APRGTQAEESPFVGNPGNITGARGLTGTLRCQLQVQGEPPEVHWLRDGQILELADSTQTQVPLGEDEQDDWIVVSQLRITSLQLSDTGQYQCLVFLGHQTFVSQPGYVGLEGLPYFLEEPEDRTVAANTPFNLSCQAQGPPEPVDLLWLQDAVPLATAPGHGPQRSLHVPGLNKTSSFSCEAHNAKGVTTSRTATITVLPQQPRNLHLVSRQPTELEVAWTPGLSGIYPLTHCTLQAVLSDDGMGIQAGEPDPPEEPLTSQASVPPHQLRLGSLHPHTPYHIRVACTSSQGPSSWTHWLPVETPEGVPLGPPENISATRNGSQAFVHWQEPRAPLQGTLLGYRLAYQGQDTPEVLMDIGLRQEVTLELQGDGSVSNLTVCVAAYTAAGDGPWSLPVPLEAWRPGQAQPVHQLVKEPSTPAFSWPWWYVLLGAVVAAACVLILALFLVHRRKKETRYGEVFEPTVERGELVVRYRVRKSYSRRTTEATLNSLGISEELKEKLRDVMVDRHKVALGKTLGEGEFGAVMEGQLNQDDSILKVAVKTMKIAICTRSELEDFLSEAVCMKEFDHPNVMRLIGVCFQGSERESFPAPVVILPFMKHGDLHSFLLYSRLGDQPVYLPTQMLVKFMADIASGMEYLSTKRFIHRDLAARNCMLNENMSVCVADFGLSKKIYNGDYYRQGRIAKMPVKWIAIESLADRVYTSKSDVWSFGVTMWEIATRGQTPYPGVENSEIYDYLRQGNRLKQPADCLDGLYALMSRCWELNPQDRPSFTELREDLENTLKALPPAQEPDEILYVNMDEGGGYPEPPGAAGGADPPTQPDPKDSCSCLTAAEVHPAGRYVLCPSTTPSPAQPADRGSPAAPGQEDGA
KDR, sequence (P35968 20-1356): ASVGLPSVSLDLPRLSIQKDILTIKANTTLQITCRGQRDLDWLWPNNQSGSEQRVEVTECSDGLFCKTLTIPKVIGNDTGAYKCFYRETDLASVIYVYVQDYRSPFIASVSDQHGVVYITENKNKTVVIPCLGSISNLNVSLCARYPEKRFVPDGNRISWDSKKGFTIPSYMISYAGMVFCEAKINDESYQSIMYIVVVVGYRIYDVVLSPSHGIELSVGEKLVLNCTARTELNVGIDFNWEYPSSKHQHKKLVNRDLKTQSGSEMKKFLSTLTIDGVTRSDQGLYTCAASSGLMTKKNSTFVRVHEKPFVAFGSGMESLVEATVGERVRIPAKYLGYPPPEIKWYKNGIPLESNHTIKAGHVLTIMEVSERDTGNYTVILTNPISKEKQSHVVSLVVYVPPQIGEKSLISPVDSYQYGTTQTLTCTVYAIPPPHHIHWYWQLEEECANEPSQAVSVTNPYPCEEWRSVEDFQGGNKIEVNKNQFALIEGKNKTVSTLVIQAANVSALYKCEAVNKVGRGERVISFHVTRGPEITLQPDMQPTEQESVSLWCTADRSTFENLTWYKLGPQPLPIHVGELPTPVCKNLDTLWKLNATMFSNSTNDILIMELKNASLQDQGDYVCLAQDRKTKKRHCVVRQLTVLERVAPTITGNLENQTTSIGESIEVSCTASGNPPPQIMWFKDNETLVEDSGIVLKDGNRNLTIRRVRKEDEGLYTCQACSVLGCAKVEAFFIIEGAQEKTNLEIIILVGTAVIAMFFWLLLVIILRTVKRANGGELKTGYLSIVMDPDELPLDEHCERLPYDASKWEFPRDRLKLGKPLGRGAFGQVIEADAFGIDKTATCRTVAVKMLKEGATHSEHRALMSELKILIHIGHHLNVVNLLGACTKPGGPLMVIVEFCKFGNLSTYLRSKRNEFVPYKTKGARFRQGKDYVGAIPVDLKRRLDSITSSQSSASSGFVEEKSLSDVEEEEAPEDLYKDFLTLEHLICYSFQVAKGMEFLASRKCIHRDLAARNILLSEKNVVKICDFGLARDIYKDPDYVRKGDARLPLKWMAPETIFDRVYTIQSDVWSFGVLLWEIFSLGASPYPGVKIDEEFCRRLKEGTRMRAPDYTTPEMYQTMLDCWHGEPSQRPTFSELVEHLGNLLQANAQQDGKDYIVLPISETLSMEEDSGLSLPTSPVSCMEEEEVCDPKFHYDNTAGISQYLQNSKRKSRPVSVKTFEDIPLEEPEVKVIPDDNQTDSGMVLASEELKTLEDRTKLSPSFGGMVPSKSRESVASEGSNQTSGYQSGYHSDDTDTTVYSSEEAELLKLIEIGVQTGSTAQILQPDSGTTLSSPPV
Met, sequence (P08581 25-1390): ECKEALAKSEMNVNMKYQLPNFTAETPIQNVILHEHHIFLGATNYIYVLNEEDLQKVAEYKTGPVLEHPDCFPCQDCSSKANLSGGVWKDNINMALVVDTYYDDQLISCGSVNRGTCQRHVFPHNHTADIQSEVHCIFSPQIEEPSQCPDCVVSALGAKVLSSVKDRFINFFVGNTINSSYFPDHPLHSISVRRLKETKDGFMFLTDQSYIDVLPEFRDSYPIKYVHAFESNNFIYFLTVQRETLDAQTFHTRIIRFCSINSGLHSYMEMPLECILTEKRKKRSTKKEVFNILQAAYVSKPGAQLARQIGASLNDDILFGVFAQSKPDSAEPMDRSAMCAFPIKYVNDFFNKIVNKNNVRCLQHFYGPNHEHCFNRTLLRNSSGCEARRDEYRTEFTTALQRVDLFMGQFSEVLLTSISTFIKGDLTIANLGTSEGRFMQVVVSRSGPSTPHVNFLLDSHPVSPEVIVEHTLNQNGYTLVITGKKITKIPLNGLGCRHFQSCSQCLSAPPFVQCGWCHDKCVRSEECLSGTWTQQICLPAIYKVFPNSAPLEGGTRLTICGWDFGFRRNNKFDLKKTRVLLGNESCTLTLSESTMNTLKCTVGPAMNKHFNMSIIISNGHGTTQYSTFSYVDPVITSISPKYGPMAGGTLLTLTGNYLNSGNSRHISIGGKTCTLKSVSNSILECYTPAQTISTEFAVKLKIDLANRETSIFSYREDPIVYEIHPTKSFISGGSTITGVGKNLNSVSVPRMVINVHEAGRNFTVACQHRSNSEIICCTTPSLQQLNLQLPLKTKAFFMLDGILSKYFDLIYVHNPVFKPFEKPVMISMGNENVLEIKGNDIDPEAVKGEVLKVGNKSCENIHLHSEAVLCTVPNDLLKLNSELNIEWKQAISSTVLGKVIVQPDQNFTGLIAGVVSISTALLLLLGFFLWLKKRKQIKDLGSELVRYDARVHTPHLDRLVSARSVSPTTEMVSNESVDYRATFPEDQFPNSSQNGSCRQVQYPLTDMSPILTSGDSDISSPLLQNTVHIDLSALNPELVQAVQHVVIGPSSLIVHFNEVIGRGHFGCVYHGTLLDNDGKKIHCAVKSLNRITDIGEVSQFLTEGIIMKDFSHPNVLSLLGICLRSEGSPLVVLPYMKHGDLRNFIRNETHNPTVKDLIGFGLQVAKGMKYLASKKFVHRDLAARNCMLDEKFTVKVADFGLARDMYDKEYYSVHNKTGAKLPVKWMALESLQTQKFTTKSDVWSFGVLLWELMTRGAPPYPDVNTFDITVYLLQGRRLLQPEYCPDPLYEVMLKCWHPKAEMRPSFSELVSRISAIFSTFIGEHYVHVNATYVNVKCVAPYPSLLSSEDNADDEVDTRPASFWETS

On to `COc1cc2ncnc(Oc3ccc(NC(=O)C4(C(=O)Nc5ccc(F)cc5)CC4)c(Cl)c3)c2nc1OC` [Compound 32, 1-N′-[2-chloro-4-(6,7-dimethoxypyrido[3,2-d]pyrimidin-4-yl)oxyphenyl]-1-N-(4-fluorophenyl)cyclo-propane-1,1-dicarboxamide], for which the figures for the IC50 on AXL, on Met and at KDR were 10 to 100 nM, 100 to 300 nM and 100 to 300 nM, respectively.

With `COc1cc2ncnc(Oc3ccc(NC(=O)C4(C(=O)Nc5ccc(F)cc5)CC4)c(C)c3)c2nc1OC` [Compound 33, 1-N′-[4-(6,7-dimethoxypyrido[3,2-d]pyrimidin-4-yl)oxy-2-methylphenyl]-1-N-(4-fluorophenyl)cyclopropane-1,1-dicarboxamide], the values for the IC50 at AXL, at Met and on KDR were 100 to 300 nM, over 300 nM and 100 to 300 nM, respectively.

On to `COc1cc(NC(=O)C2(C(=O)Nc3ccc(F)cc3)CC2)ccc1Oc1ncnc2cc(OCCCN3CCOCC3)c(OC)nc12` [Compound 74, 1-N-(4-fluorophenyl)-1-N′-[3-methoxy-4-[6-methoxy-7-(3-morpholin-4-ylpropoxy)pyrido[3,2-d]pyrimidin-4-yl]oxyphenyl]cyclopropane-1,1-dicarboxamide], for which the IC50 on AXL is 100 to 300 nM; at Met it was over 300 nM; on KDR, 10 to 100 nM.

Regarding `COCCOc1cc2ncnc(Oc3ccc(NC(=O)C4(C(=O)Nc5ccc(F)cc5)CC4)cc3)c2nc1OC` [Compound 78, 1-N′-(4-fluorophenyl)-1-N-[4-[6-methoxy-7-(2-methoxyethoxy)pyrido[3,2-d]pyrimidin-4-yl]oxyphenyl]cyclopropane-1,1-dicarboxamide], the IC50 is 10 to 100 nM against AXL, 100 to 300 nM on Met and at most 10 nM at KDR.

`Cn1cc(-c2ccc3ncnc(Oc4ccc(NC(=O)C5(C(=O)Nc6ccc(F)cc6)CC5)cc4)c3c2)cn1` [Compound 126, 1-N′-(4-fluorophenyl)-1-N-[4-[6-(1-methylpyrazol-4-yl)quinazolin-4-yl]oxyphenyl]cyclo-propane-1,1-dicarboxamide]: the IC50 is 100 to 300 nM at AXL, over 300 nM at Met and over 300 nM at KDR.

Regarding `COc1cc2nccc(Oc3cc(F)c(NC(=O)C4(C(=O)Nc5ccc(F)cc5)CC4)cc3F)c2nc1OC` [Compound 142, 1-N′-[4-[(6,7-dimethoxy-1,5-naphthyridin-4-yl)oxy]-2,5-difluorophenyl]-1-N-(4-fluorophenyl)cyclo-propane-1,1-dicarboxamide], the IC50 at AXL is at most 10 nM; on Met it was 10 to 100 nM; against KDR, at most 10 nM.

In the case of `COCCOc1cc2nccc(Oc3cc(F)c(NC(=O)C4(C(=O)Nc5ccc(F)cc5)CC4)cc3F)c2nc1OC` [Compound 152, 1-N′-[2,5-difluoro-4-[[6-methoxy-7-(2-methoxy-ethoxy)-1,5-naphthyridin-4-yl]oxy]phenyl]-1-N-(4-fluoro-phenyl)cyclopropane-1,1-dicarboxamide], the values for the IC50 against AXL, on Met and against KDR were at most 10 nM, 10 to 100 nM and at most 10 nM, respectively.

As for `COc1nc2c(Oc3cc(F)c(NC(=O)C4(C(=O)Nc5ccc(F)cc5)CC4)cc3F)ccnc2cc1OCCN1CCOCC1` [Compound 153, 1-N′-[2,5-difluoro-4-[[6-methoxy-7-(2-morpholin-4-ylethoxy)-1,5-naphthyridin-4-yl]oxy]phenyl]-1-N-(4-fluorophenyl)cyclo-propane-1,1-dicarboxamide], the IC50 is at most 10 nM at AXL, 10 to 100 nM at Met and at most 10 nM against KDR.

As for `O=C(Nc1ccc(F)cc1)C1(C(=O)Nc2ccc(Oc3ccnc4cc5c(nc34)OCCO5)cc2)CC1` [Compound 157, 1-N-[4-(2,3-dihydro-[1,4]dioxino[2,3-b][1,5]naphthyridin-6-yloxy)phenyl]-1-N′-(4-fluorophenyl)cyclopropane-1,1-dicarboxamide], the IC50 at AXL, on Met and against KDR was over 300 nM throughout.

With `O=C(Nc1ccc(F)cc1)C1(C(=O)Nc2ccc(Oc3ccnc4cc5c(nc34)OCCO5)c(F)c2)CC1` [Compound 158, 1-N′-[4-(2,3-dihydro-[1,4]dioxino[2,3-b][1,5]naphthyridin-6-yloxy)-3-fluorophenyl]-1-N-(4-fluorophenyl)cyclo-propane-1,1-dicarboxamide], the IC50 on AXL, on Met and against KDR was over 300 nM in each case.

As to `O=C(Nc1ccc(F)cc1)C1(C(=O)Nc2ccc(Oc3ccnc4cc5c(nc34)OCCO5)c(Cl)c2)CC1` [Compound 159, 1-N′-[3-chloro-4-(2,3-dihydro-[1,4]dioxino[2,3-b][1,5]naphthyridin-6-yloxy)phenyl]-1-N-(4-fluorophenyl)cyclopropane-1,1-dicarboxamide], the IC50 on AXL is over 300 nM; on Met, 100 to 300 nM; against KDR, over 300 nM.

For `COc1cc2nccc(Oc3ccc(NC(=O)C4(C(=O)Nc5ccc(F)cc5)CC4)cc3)c2nc1C#N` [Compound 164, 1-N-[4-[(6-cyano-7-methoxy-1,5-naphthyridin-4-yl)oxy]phenyl]-1-N′-(4-fluoro-phenyl)cyclopropane-1,1-dicarboxamide], the IC50 is 100 to 300 nM against AXL, over 300 nM on Met and 100 to 300 nM against KDR.

Take `COc1cc2nccc(Oc3ccc(NC(=O)C4(C(=O)Nc5ccc(F)cc5)CC4)cc3F)c2nc1C#N` [Compound 165, 1-N′-[4-[(6-cyano-7-methoxy-1,5-naphthyridin-4-yl)oxy]-3-fluorophenyl]-1-N-(4-fluorophenyl)cyclo-propane-1,1-dicarboxamide]: the IC50 against AXL is 10 to 100 nM; on Met it was 100 to 300 nM; against KDR it was 100 to 300 nM.

Take `COc1cc2nccc(Oc3ccc(NC(=O)C4(C(=O)Nc5ccc(F)cc5)CC4)cc3Cl)c2nc1C#N` [Compound 166, 1-N′-[3-chloro-4-[(6-cyano-7-methoxy-1,5-naphthyridin-4-yl)oxy]phenyl]-1-N-(4-fluorophenyl)cyclopropane-1,1-dicarboxamide]: the values for the IC50 against AXL, at Met and on KDR were 100 to 300 nM, 100 to 300 nM and 10 to 100 nM, respectively.

Regarding `COc1cc2nccc(Oc3ccc(NC(=O)C4(C(=O)Nc5ccc(F)cc5)CC4)cc3)c2nc1C(N)=O` [Compound 167, 1-N-[4-[(6-carbamoyl-7-methoxy-1,5-naphthyridin-4-yl)oxy]phenyl]-1-N′-(4-fluorophenyl)cyclopropane-1,1-dicarboxamide], the values for the IC50 on AXL, on Met and against KDR were 100 to 300 nM, over 300 nM and over 300 nM, respectively.
